Measured values taken from paper PMC11621054, “Biological evaluation of semi-synthetic isoindolinone isomers produced by Stachybotrys chartarum” (Frontiers in Fungal Biology, 2024).
Entries after “also recorded” stand apart in the source; their conditions may differ.

Key:
[1] = system: HepG2; assay: Micronucleus assay (genotoxicity, OECD 487); type: cell-based, human; conditions: 1 at 25 µM, 3a at 5 and 25 µM
Method: The genotoxic effects of the AcAc ( 1 ) and its semi-synthetic products ( 2a , 2b; 3a , 3b ) were evaluated with the micronucleus assay, performed based on OECD Test guideline 487. HepG2 were cultivated in accordance with the descriptions of Kalinina et al. ([Kalinina et al., 2018]). The cells were seeded with 300,000 cells/slide on Polysine® slides (Epredia™ Polysine™ Microscopic Adhesion Slides, FisherScientific) in quadriPERM® culture dishes (Sarstedt, Nümbrecht, Germany) and cultivated for 24 h. Then, they were incubated with the test compounds (0.5-25 µM) in serum free DMEM for 5 h. As positive control 0.6 µM mitomycin C (MMC) was used. All tested compounds were dissolved in DMSO. Cells were washed with sterile phosphate-buffered saline (PBS) and incubated with 4 µg/mL cytokinesis inhibitor cytochalasin B (Santa Cruz Biotechnology, USA) in DMEM for 19 h. Slides were washed with PBS and cold MeOH. Afterwards, cells were fixated with MeOH at -20 °C for 1 h. […] Subsequently, cells were evaluated using a fluorescence microscope (Zeiss Axio Imager 2, Oberkochen, Germany) with filters of 365/445 nm and 546/575 nm. The micronucleus rate was evaluated by counting 1,000 binucleate cells and binucleate cells with micronuclei on each slide and calculating the proportion of binucleate cells containing one or more micronuclei. […]

[2] = Hepatic phase I metabolism (oxidation), human microsomes; type: in vitro ADME; conditions: 10 µM, 90 min
Method: (§1) Liver microsomes and cytosol were obtained for two organisms, horse and human. Fresh horse liver was purchased locally cut to pieces of ca. 50 g each and frozen in liquid nitrogen. Until further usage, the liver was stored at -80 °C. The preparation of microsomes and cytosol was carried out according to Balk et al. ([Balk et al., 1984]), and the protein content was determined by Bradford assay with bovine serum albumin as a reference ([Bradford, 1976]). Human liver microsomes and cytosol (150 Donors Ultrapool™) were provided by Corning, Inc. (Corning, New York, NY, USA). Besides assay-specific positive controls, all assays included stability controls, moreover, matrix influences were considered. For oxidation, additional non-oxidation controls were included. Each experiment was performed in duplicate. All stated concentrations are final concentration values. The test compounds (acetoxystachybotrylactam acetate-tryptophan 2a, 2b and acetoxystachybotrylactam acetate-tryptamine 3a, 3b ) were extended by the most biologically active derivative previously characterized by our group (acetoxystachybotrylactam acetate-agmatine 4 ) ([Steinert et al., 2022]).
(§2) The phase I metabolism was investigated utilizing a NADPH- regenerating system. […] After centrifugation (4 °C, 10 min, 15,000 rpm), 150 µL of supernatant was diluted with 850 µL H2O, which was subsequently analyzed by HPLC-qToF-HRMS. […]

[3] = Hepatic phase I metabolism (oxidation), horse microsomes; type: in vitro ADME; conditions: 10 µM, 90 min
Method: as §1, §2

[4] = Hepatic phase II sulfation, human cytosol; type: in vitro ADME; conditions: 50 µM, 4 h
Method: as §1
(§3) For phase II metabolism, potential sulfation and glucuronidation were investigated. For sulfation, the reaction mixture was pipetted as follows: first, ultrapure water was added and mixed with a 1 mM DTT solution (contains DTT, 100 mM phosphate buffer, 100 µM ascorbic acid, pH 7.4). Then, PAPS (100 µM) and the substance of interest (50 µM) were added, which was concluded by the addition of horse/human cytosol (10 mg protein/mL). For glucuronidation, first, ultrapure H2O, phosphate buffer (50 mM) and MgCl2 (5 mM) were added to the reaction vessel, followed by addition of the investigated substance (50 µM), UDPGA (5 µM), and horse/human microsomes (1 mg protein/mL), respectively. For both assays, the final volume was 100 µL which was subsequently incubated for 4 h at 37 °C in darkness. […] After centrifugation (4 °C, 10 min, 15,000 rpm), 150 µL of supernatant was diluted with 850 µL H2O, which was subsequently analyzed by HPLC-qToF-HRMS. […]

[5] = Hepatic phase II sulfation, horse cytosol; type: in vitro ADME; conditions: 50 µM, 4 h
Method: as §1, §3

[6] = Hepatic phase II glucuronidation, human microsomes; type: in vitro ADME; conditions: 50 µM, 4 h; for glucuronidation: conversion and formation of glucuronides, in words: human microsomes
Method: as §1
For phase II metabolism, potential sulfation and glucuronidation were investigated. For sulfation, the reaction mixture was pipetted as follows: first, ultrapure water was added and mixed with a 1 mM DTT solution (contains DTT, 100 mM phosphate buffer, 100 µM ascorbic acid, pH 7.4). Then, PAPS (100 µM) and the substance of interest (50 µM) were added, which was concluded by the addition of horse/human cytosol (10 mg protein/mL). For glucuronidation, first, ultrapure H2O, phosphate buffer (50 mM) and MgCl2 (5 mM) were added to the reaction vessel, followed by addition of the investigated substance (50 µM), UDPGA (5 µM), and horse/human microsomes (1 mg protein/mL), respectively. For both assays, the final volume was 100 µL which was subsequently incubated for 4 h at 37 °C in darkness. Quenching and protein precipitation was achieved by adding 200 µL of cold MeCN (-20 °C). After centrifugation (4 °C, 10 min, 15,000 rpm), 150 µL of supernatant was diluted with 850 µL H2O, which was subsequently analyzed by HPLC-qToF-HRMS. For both experiments, 50 µM 7-hydroxycumarin served as positive control.
Chromatographic separation and mass spectrometric detection were identical to the parameters already described for the fragmentation experiments for phase I and phase II glucuronidation metabolism. For sulfation, the HPLC-qToF-HRMS was operated in negative ionization mode at -4.5 kV and otherwise identical source parameters as previously described. […]

[7] = Hepatic phase II glucuronidation, horse microsomes; type: in vitro ADME; conditions: 50 µM, 4 h; for glucuronidation: conversion and formation of glucuronides, in words: horse microsomes
Method: as §1, §3

[8] = system: Human liver carcinoma cells (HepG2, HB-8065); parameters: method as in Steinert et al., 2022; conditions: 50 µM, 24 h; data of Figure 8 for compound 1 from previous investigation; ref Steinert et al., 2022; cited from earlier work
[9] = target: T1, human β-FXIIa (Homo sapiens, UniProt P00748); assay: Serine protease inhibition assay, fluorogenic substrate, FXIIa; type: biochemical; conditions: endpoint RFU after 1 h, 25 °C; for inhibition of FXIIa: 200 µM
T1 construct: human β-FXIIa, HFXIIAB, > 95% purity; Molecular Innovations; purchased Molecular Innovations HFXIIAB
T1 sequence (P00748 373-615 limits assumed, other chains not shown): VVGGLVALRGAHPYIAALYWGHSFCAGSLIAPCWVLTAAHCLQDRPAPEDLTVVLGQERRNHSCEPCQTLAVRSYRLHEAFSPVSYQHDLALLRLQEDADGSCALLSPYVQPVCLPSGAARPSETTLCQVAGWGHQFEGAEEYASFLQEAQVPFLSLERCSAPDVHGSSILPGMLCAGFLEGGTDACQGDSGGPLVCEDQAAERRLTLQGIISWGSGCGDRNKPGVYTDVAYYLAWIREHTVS
Method: (§4) The inhibitory activity of further semi-synthesized compounds toward the coagulation factor XIIa, thrombin, FXIa, FXa, and trypsin was measured by quantifying the hydrolysis rate of the fluorogenic substrates as reported previously ([Korff et al., 2020]; [Platte et al., 2021]; [Imberg et al., 2022]). Briefly, the activity was tested in buffer (10 mM Tris-Cl, 150 mM NaCl, 10 mM MgCl2·6 H2O, 1 mM CaCl2·2 H2O, 0.1% w/v BSA, 0.01% v/v Triton-X100, pH 7.4) utilizing clear flat-bottom, black polystyrene 96-well plates. The enzymes (human β-FXIIa, HFXIIAB, > 95% purity; Molecular Innovations, 2.5 nM – final concentration; human α-thrombin (active) protein, ABIN2127880, > 95% purity; antibodies-online, 0.25 nM – final concentration; human Factor Xa, HFXA, > 95% purity; Molecular Innovations, 2.5 nM – final concentration; human factor XIa, HFXIA, >95% purity; Molecular Innovations, 0.5 nM – final concentration porcine trypsin; Merck, 3.5 nM – final concentration) and the fluorogenic substrates for FXIIa: Boc-Gln-Gly-Arg-AMC (Pepta Nova, 25 µM – final concentration, Km = 167 µM); for thrombin: Boc Val Pro Arg AMC (Pepta Nova, 25 µM – final concentration, Km = 18 µM); for FXa: Boc-Ile-Glu-Gly-Arg-AMC (Pepta Nova, 25 µM – final concentration); for FXIa: Boc-Glu-(OBzl)-Ala-Arg-AMC (Pepta Nova, 25 µM – final concentration); for trypsin: Z-Gly-Gly-Arg-AMC (Sigma-Aldrich, 25 µM – final concentration) were used. The fluorogenic substrate solution was added into the wells followed by the addition of test-compounds solution, and the reaction was triggered by addition of the enzyme solution (final testing volume – 150 µL). In case of blank (substrate + buffer) and control (substrate + enzyme) wells, DMSO was added instead of the test-compounds’ solution. Fluorescence intensity was measured with Microplate Reader Mithras LB 940 (Berthold Technologies, excitation at 355 nm, emission at 460 nm) for a period of 1 h with a read every minute. The reactions were performed at 25 °C. To derive % of enzyme inhibition, endpoint RFU (single fluorescence reading after 1 h) was used. As a positive controls for thrombin, FXa, FXIIa, FXIa, and trypsin were used dabigatran (500 nM), rivaroxaban (500 nM), compound “39b” (500 nM) ([Platte et al., 2021]), Inhibitor 5t (8 µM) ([Imberg et al., 2022]), Inhibitor E (2 µM) ([Erbacher et al., 2024]), respectively. Semi-synthesized compounds were screened at 200 µM.

[10] = target: T2, human factor XIa (Homo sapiens, UniProt P03951); assay: Serine protease inhibition assay, fluorogenic substrate, FXIa; type: biochemical; conditions: endpoint RFU after 1 h, 25 °C
T2 construct: human factor XIa, HFXIA, >95% purity; Molecular Innovations; purchased Molecular Innovations HFXIA
T2 sequence (P03951 388-625 limits assumed): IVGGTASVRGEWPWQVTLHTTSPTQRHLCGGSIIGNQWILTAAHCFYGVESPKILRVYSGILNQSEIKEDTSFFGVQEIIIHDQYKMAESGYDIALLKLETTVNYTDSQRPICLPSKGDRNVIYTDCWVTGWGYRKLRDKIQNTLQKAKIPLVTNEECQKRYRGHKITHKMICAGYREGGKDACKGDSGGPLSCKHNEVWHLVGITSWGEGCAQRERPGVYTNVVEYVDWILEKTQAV
T2 sequence (P03951 19-387 partner limits assumed): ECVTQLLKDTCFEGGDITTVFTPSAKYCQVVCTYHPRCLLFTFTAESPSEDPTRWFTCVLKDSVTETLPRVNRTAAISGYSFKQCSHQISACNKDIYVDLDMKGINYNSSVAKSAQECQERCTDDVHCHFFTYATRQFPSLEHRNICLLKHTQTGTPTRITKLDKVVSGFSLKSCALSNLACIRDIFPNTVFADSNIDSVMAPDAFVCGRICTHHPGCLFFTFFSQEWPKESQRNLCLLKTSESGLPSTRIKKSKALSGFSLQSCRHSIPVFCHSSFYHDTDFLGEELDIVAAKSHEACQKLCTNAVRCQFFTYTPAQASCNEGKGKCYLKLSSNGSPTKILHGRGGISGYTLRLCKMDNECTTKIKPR
Method: as §4

[11] = system: Human liver carcinoma cells (HepG2, HB-8065); conditions: HepG2, 24 h incubation, resazurin
[12] = target: T3, human Factor Xa (Homo sapiens, UniProt P00742); assay: Serine protease inhibition assay, fluorogenic substrate, FXa; type: biochemical; conditions: 200 µM, endpoint RFU after 1 h, 25 °C
T3 construct: human Factor Xa, HFXA, > 95% purity; Molecular Innovations; purchased Molecular Innovations HFXA
T3 sequence (P00742 235-488 limits assumed): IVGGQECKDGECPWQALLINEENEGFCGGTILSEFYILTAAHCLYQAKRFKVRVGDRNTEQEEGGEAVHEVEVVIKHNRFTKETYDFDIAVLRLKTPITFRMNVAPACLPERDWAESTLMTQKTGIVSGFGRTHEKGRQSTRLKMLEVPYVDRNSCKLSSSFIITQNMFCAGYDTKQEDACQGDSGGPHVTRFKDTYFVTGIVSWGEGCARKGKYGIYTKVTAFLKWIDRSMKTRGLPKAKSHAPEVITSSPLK
T3 sequence (P00742 41-179 partner limits assumed): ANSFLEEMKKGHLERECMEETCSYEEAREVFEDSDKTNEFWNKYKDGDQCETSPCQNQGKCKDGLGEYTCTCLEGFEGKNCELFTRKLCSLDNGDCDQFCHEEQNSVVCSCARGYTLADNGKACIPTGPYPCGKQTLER
Method: (§5) The inhibitory activity of further semi-synthesized compounds toward the coagulation factor XIIa, thrombin, FXIa, FXa, and trypsin was measured by quantifying the hydrolysis rate of the fluorogenic substrates as reported previously ([Korff et al., 2020]; [Platte et al., 2021]; [Imberg et al., 2022]). Briefly, the activity was tested in buffer (10 mM Tris-Cl, 150 mM NaCl, 10 mM MgCl2·6 H2O, 1 mM CaCl2·2 H2O, 0.1% w/v BSA, 0.01% v/v Triton-X100, pH 7.4) utilizing clear flat-bottom, black polystyrene 96-well plates. […] Fluorescence intensity was measured with Microplate Reader Mithras LB 940 (Berthold Technologies, excitation at 355 nm, emission at 460 nm) for a period of 1 h with a read every minute. […] To derive % of enzyme inhibition, endpoint RFU (single fluorescence reading after 1 h) was used. […]

[13] = target: T4, porcine trypsin (Sus scrofa, UniProt P00761); assay: Serine protease inhibition assay, fluorogenic substrate, trypsin; type: biochemical; conditions: 200 µM, endpoint RFU after 1 h, 25 °C
T4 construct: porcine trypsin; Merck, 3.5 nM – final concentration; purchased Merck
T4 sequence (P00761 9-231): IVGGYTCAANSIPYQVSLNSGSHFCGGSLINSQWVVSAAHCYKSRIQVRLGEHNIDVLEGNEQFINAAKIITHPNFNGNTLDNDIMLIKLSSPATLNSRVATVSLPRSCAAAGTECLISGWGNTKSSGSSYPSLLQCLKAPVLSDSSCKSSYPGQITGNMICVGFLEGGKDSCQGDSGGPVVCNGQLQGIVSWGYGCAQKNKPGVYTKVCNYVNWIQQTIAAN
Method: as §5

[14] = Precipitation in cell culture medium; type: physicochemical; conditions: cell culture medium (DMEM), 0.5% DMSO
[15] = system: lung adenocarcinoma cells (A549, CCL-185); conditions: A549, 24 h incubation, resazurin

Compound	cell damage seen in the micronucleus assay (slides excluded from evaluation) [1]	phase I conversion, in words [2]	phase I conversion, in words [3]	metabolism under sulfation conditions, in words [4]	metabolism under sulfation conditions, in words [5]	glucuronidation: conversion and formation of glucuronides, in words [6]	remaining parental compound, glucuronidation (phase II) ([6]; human, 37 °C, normalized to stability control, n.d. = not detected)	glucuronidation: conversion and formation of glucuronides, in words [7]	remaining parental compound, glucuronidation (phase II) ([7]; horse, 37 °C, normalized to stability control, n.d. = not detected)	HepG2 cell viability [8]	inhibition at 200 µM [9]	inhibition at 200 µM [10]	cytotoxicity (cell viability, T/C), in words [11]	inhibition of FXIIa [9]	inhibition of FXa [12]	inhibition of trypsin [13]	concentration at which precipitation in cell culture medium starts [14]	cytotoxicity (cell viability, T/C), in words [15]
CC(=O)O[C@@H]1[C@H](OC(C)=O)C[C@@]2(C)C(CC[C@@H](C)[C@]23Cc2c(O)cc(C=O)c(C=O)c2O3)C1(C)C (some centres unmarked) [Compound 1, acetoxystachybotrydial acetate]	left the cells visibly damaged	metabolized fastest	metabolized fastest	did undergo metabolism	did undergo metabolism	did not at all	no 1 remaining in solution	did not at all	no 1 remaining in solution	below 50%								
CC(=O)OC1CC2(C)C(CCC(C)C23Cc2c(O)cc4c(c2O3)CN(C(Cc2c[nH]c3ccccc23)C(=O)O)C4=O)C(C)(C)C1OC(C)=O (centres unmarked) [Compound 2a, Acetoxystachybotrylactam acetate-tryptophan]											63%	51%	more toxic					
CC(=O)OC1CC2(C)C(CCC(C)C23Cc2c(O)cc4c(c2O3)C(=O)N(C(Cc2c[nH]c3ccccc23)C(=O)O)C4)C(C)(C)C1OC(C)=O (centres unmarked) [Compound 2b, Acetoxystachybotrylactam acetate-tryptophan]						more readily converted; also recorded: more available for glucuronidation than 2a		more readily converted; also recorded: more available for glucuronidation than 2a			34%	66%	less cytotoxic					
CC(=O)OC1CC2(C)C(CCC(C)C23Cc2c(O)cc4c(c2O3)CN(CCc2c[nH]c3ccccc23)C4=O)C(C)(C)C1OC(C)=O (centres unmarked) [Compound 3a, Acetoxystachybotrylactam acetate-tryptamine]	impaired cell viability even more											9%		no inhibition	no inhibition	no inhibition	≥ 10 µM	
CC(=O)OC1CC2(C)C(CCC(C)C23Cc2c(O)cc4c(c2O3)C(=O)N(CCc2c[nH]c3ccccc23)C4)C(C)(C)C1OC(C)=O (centres unmarked) [Compound 3b, Acetoxystachybotrylactam acetate-tryptamine]				did undergo metabolism	did undergo metabolism							17%		no inhibition	no inhibition	no inhibition	≥ 1 µM	no impact on cell viability was observed
